# Measured values reported in patent publication US20140093588A1 (Fred Hutchinson Cancer Research Center, priority 2006, published 2014).
# How the values were obtained:
# [1] = cited from earlier work
# [2] = at STP; cited from earlier work
# [3] = test system: LPS-induced IL-1 and TNF production; experiment: Bacterial lipopolysaccharide endotoxemia in mice, IL-1β and TNFα plasma levels by ELISA; type: in vivo, C57/BI6 mice; conditions: Tin-protoporphyrin IX 6 mg/kg ip, 30 min before Alzet H2S treatment
# Description: Four groups of C57/BI6 mice were subjected to bacterial lipopolysaccharide (5 mg/kg ip). Three groups received H2S treatment (0.2 mg/kg/hr, 4 hrs), and a control group received saline using Alzet osmotic minipumps 30 minutes prior to the induction of endotoxemia (n=7−10/group) in both cases. The effect of the heme oxygenase inhibitor tin-protoporphyrin IX (6 mg/kg, ip, 30 min earlier to Alzet treatment) was also examined in two groups. After 4 hours, the animals were anesthetized using pentobarbital (60 mg/kg ip) and blood samples were taken. IL-1β and TNFα plasma levels were measured using a commercially available ELISA kit (R&D Systems).
# [4] = test system: Murine J774 macrophages; experiment: Cell viability (MTT reduction) of macrophages treated with GSNO or ONOO— after sulfide pretreatment; type: cell-based; conditions: H2S tested on cells to define the highest tested concentration that would reduce viability
# Description: Cells were cultured in 96-well plates until cells reached confluence essentially as described in C.
# Cell respiration, an indicator of cell viability, was assessed by the mitochondrial-dependent reduction of MTT to formazen (Gross and Levi, 1992). Cells in 96-well plates were incubated at 37° C. with MTT (0.2 mg/ml for 60 min). Culture medium was removed by aspiration, and the cells were solubilized in DMSO. The extent of reduction of MTT to formazan within cells was quantitated by OD550 measurement.
# H2S was tested on cells to define the highest tested concentration that would reduce viability. […] Following pretreatment, cells were treated with GSNO (1 mM, 3 mM, or 10 mM). Cell viability was measured at three hours.
# Following pretreatment, ONOO— was added at concentrations of 0.3 mM, 0.6 mM, or 1 mM. Cell viability was measured at three hours.
# Three hours after treatment, cell viability was measured.
# In a related experiment, Murine J774 macrophages were grown until confluency in 96 well plates. Cells were pretreated with H2S (30 mM, 60 mM, 100 mM, 1 mM) for 30 minutes or 24 hours, then cells were incubated with GSNO or ONOO— for 3 hours. GSNO was used in 1 mM and 3 mM concentrations, while ONOO— was used in 300 mM concentration. Following treatment, cells were incubated for 20 minutes with fresh media containing 0.05% MTT. […] Optical density was measured at 550 nm.
smiles,measurement,setting,value
O=NOO [peroxynitrite],half-life,[1],~1 s
"[N]=O [NO, nitric oxide]",soluble in water up to a concentration,[2],about 2 mM
"C=Cc1c2[n-]c(c1C)/C=c1\[n-]/c(c(C)c1C=C)=C\c1[n-]c(c(CCC(=O)O)c1C)C=c1[n-]/c(c(C)c1CCC(=O)O)=C\2.[Sn+4] [Tin-protoporphyrin IX, tin-protoporphyrin IX]",effect of H2S on IL-1 after pretreatment with the heme oxygenase inhibitor,[3],attenuated
"S [H2S, hydrogen sulfide]",concentration that may confer a protective effect,[4],1 mM
